What was measured:
[1] = target: T1, norepinephrine transporter(h) (Homo sapiens, UniProt P23975); experiment: biochemical; parameters: Eurofins SafetyScreen44 radioligand displacement, inhibition of control specific binding; conditions: read-out: % Inhibition of Control Specific Binding, Mean
T1 construct: gene SLC6A2

V1a(h) = target: T2, V1a(h) (Homo sapiens, UniProt P37288); experiment: biochemical; parameters: Eurofins SafetyScreen44 radioligand displacement, inhibition of control specific binding; conditions: read-out: % Inhibition of Control Specific Binding, Mean
T2 construct: gene AVPR1A

N neuronal α7 (h) = target: T3, N neuronal α7 (h) (Homo sapiens, UniProt P36544); experiment: biochemical; parameters: Eurofins SafetyScreen44 radioligand displacement, inhibition of control specific binding; conditions: read-out: % Inhibition of Control Specific Binding, Mean
T3 construct: gene CHRNA7

D3(h) = target: T4, D3(h) (Homo sapiens, UniProt P35462); experiment: biochemical; parameters: Eurofins SafetyScreen44 radioligand displacement, inhibition of control specific binding; conditions: read-out: % Inhibition of Control Specific Binding, Mean
T4 construct: gene DRD3

5-HT transporter (h) = target: T5, 5-HT transporter (h) (Homo sapiens, UniProt P31645); experiment: biochemical; parameters: Eurofins SafetyScreen44 radioligand displacement, inhibition of control specific binding; conditions: read-out: % Inhibition of Control Specific Binding, Mean
T5 construct: gene SLC6A4

H1(h) = target: T6, H1(h) (Homo sapiens, UniProt P35367); experiment: biochemical; parameters: Eurofins SafetyScreen44 radioligand displacement, inhibition of control specific binding; conditions: read-out: % Inhibition of Control Specific Binding, Mean
T6 construct: gene HRH1

5-HT7 (h) = target: T7, 5-HT7 (h) (Homo sapiens, UniProt P34969); experiment: biochemical; parameters: Eurofins SafetyScreen44 radioligand displacement, inhibition of control specific binding; conditions: read-out: % Inhibition of Control Specific Binding, Mean
T7 construct: gene HTR7

D1(h) = target: T8, D1(h) (Homo sapiens, UniProt P21728); experiment: biochemical; parameters: Eurofins SafetyScreen44 radioligand displacement, inhibition of control specific binding; conditions: read-out: % Inhibition of Control Specific Binding, Mean
T8 construct: gene DRD1

GR (h) = target: T9, GR (h) (Homo sapiens, UniProt P04150); experiment: biochemical; parameters: Eurofins SafetyScreen44 radioligand displacement, inhibition of control specific binding; conditions: read-out: % Inhibition of Control Specific Binding, Mean
T9 construct: gene NR3C1

D2L(h) = target: T10, D2L(h) (Homo sapiens, UniProt P14416); experiment: biochemical; parameters: Eurofins SafetyScreen44 radioligand displacement, inhibition of control specific binding; conditions: read-out: % Inhibition of Control Specific Binding, Mean
T10 construct: gene DRD2; long isoform D2L

sigma 1 (h) = target: T11, sigma 1 (h) (Homo sapiens, UniProt Q99720); experiment: biochemical; parameters: Eurofins SafetyScreen44 radioligand displacement, inhibition of control specific binding; conditions: read-out: % Inhibition of Control Specific Binding, Mean
T11 construct: gene SIGMAR1

CB2(h) = target: T12, CB2(h) (Homo sapiens, UniProt P34972); experiment: biochemical; parameters: Eurofins SafetyScreen44 radioligand displacement, inhibition of control specific binding; conditions: read-out: % Inhibition of Control Specific Binding, Mean
T12 construct: gene CNR2

[2] = target: T13, Potassium Channel hERG (human) (Homo sapiens, UniProt Q12809); experiment: in vitro; parameters: Eurofins SafetyScreen44 radioligand displacement, inhibition of control specific binding; conditions: read-out: % Inhibition of Control Specific Binding, Mean
T13 construct: gene KCNH2

N neuronal α4β2 (h) = target: T14, N neuronal α4β2 (h) (Homo sapiens, UniProt P17787+P43681); experiment: biochemical; parameters: Eurofins SafetyScreen44 radioligand displacement, inhibition of control specific binding; conditions: read-out: % Inhibition of Control Specific Binding, Mean
T14 construct: gene CHRNB2

acetylcholinesterase (h) = target: T15, acetylcholinesterase (h) (Homo sapiens, UniProt P22303); experiment: biochemical; parameters: Eurofins SafetyScreen44 enzyme assays, inhibition of control specific activity; conditions: read-out: % Inhibition of Control Values, Mean
T15 construct: gene ACHE

N muscle-type (h) = target: T16, N muscle-type (h) (Homo sapiens, UniProt P02708); experiment: biochemical; parameters: Eurofins SafetyScreen44 radioligand displacement, inhibition of control specific binding; conditions: read-out: % Inhibition of Control Specific Binding, Mean
T16 construct: gene CHRNA1

μ (MOP) (h) = target: T17, μ (MOP) (h) (Homo sapiens, UniProt P35372); experiment: biochemical; parameters: Eurofins SafetyScreen44 radioligand displacement, inhibition of control specific binding; conditions: read-out: % Inhibition of Control Specific Binding, Mean
T17 construct: gene OPRM1

5-HT1B (h) = target: T18, 5-HT1B (h) (Homo sapiens, UniProt P28222); experiment: biochemical; parameters: Eurofins SafetyScreen44 radioligand displacement, inhibition of control specific binding; conditions: read-out: % Inhibition of Control Specific Binding, Mean
T18 construct: gene HTR1B

5-HT6 (h) = target: T19, 5-HT6 (h) (Homo sapiens, UniProt P50406); experiment: biochemical; parameters: Eurofins SafetyScreen44 radioligand displacement, inhibition of control specific binding; conditions: read-out: % Inhibition of Control Specific Binding, Mean
T19 construct: gene HTR6

M4(h) = target: T20, M4(h) (Homo sapiens, UniProt P08173); experiment: biochemical; parameters: Eurofins SafetyScreen44 radioligand displacement, inhibition of control specific binding; conditions: read-out: % Inhibition of Control Specific Binding, Mean
T20 construct: gene CHRM4

COX1(h) = target: T21, COX1(h) (Homo sapiens, UniProt P23219); experiment: biochemical; parameters: Eurofins SafetyScreen44 enzyme assays, inhibition of control specific activity; conditions: read-out: % Inhibition of Control Values, Mean
T21 construct: gene PTGS1

D2S(h) = target: T22, D2S(h) (Homo sapiens, UniProt P14416); experiment: biochemical; parameters: Eurofins SafetyScreen44 radioligand displacement, inhibition of control specific binding; conditions: read-out: % Inhibition of Control Specific Binding, Mean
T22 construct: gene DRD2; short isoform D2S

CCK1 (CCKA) (h) = target: T23, CCK1 (CCKA) (h) (Homo sapiens, UniProt P32238); experiment: biochemical; parameters: Eurofins SafetyScreen44 radioligand displacement, inhibition of control specific binding; conditions: read-out: % Inhibition of Control Specific Binding, Mean
T23 construct: gene CCKAR

M3(h) = target: T24, M3(h) (Homo sapiens, UniProt P20309); experiment: biochemical; parameters: Eurofins SafetyScreen44 radioligand displacement, inhibition of control specific binding; conditions: read-out: % Inhibition of Control Specific Binding, Mean
T24 construct: gene CHRM3

M1(h) = target: T25, M1(h) (Homo sapiens, UniProt P11229); experiment: biochemical; parameters: Eurofins SafetyScreen44 radioligand displacement, inhibition of control specific binding; conditions: read-out: % Inhibition of Control Specific Binding, Mean
T25 construct: gene CHRM1

5-HT2A(h) = target: T26, 5-HT2A(h) (Homo sapiens, UniProt P28223); experiment: biochemical; parameters: Eurofins SafetyScreen44 radioligand displacement, inhibition of control specific binding; conditions: read-out: % Inhibition of Control Specific Binding, Mean
T26 construct: gene HTR2A
T26 sequence (P28223 whole entry): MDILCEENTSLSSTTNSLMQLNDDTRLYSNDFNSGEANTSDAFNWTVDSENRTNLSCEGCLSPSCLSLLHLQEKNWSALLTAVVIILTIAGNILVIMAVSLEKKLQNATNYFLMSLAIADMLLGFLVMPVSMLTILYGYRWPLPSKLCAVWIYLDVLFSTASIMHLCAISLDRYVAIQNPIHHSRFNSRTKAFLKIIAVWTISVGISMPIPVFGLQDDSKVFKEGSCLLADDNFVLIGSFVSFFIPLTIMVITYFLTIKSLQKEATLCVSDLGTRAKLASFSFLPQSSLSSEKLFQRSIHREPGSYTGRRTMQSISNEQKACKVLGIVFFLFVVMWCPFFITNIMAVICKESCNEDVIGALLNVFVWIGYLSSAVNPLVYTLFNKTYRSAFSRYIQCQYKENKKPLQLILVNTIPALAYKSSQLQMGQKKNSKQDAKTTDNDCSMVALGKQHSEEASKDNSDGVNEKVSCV

T1 sequence (P23975 whole entry): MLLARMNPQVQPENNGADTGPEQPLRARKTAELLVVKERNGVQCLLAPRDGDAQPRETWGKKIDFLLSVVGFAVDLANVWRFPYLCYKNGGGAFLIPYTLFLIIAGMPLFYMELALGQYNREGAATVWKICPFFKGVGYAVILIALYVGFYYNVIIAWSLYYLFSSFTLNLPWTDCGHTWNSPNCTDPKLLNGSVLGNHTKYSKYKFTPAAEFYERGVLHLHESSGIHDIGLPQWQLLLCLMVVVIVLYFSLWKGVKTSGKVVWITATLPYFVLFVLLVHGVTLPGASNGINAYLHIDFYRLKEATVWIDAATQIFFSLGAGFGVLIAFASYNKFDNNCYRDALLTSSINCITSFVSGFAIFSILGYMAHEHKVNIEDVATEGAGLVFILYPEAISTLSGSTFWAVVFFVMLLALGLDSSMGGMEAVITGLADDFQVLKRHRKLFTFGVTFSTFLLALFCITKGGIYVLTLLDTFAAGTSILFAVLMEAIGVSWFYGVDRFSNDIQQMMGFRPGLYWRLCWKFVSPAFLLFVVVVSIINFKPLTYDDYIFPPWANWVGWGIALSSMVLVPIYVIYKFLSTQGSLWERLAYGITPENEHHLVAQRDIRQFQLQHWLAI
T13 sequence (Q12809 whole entry): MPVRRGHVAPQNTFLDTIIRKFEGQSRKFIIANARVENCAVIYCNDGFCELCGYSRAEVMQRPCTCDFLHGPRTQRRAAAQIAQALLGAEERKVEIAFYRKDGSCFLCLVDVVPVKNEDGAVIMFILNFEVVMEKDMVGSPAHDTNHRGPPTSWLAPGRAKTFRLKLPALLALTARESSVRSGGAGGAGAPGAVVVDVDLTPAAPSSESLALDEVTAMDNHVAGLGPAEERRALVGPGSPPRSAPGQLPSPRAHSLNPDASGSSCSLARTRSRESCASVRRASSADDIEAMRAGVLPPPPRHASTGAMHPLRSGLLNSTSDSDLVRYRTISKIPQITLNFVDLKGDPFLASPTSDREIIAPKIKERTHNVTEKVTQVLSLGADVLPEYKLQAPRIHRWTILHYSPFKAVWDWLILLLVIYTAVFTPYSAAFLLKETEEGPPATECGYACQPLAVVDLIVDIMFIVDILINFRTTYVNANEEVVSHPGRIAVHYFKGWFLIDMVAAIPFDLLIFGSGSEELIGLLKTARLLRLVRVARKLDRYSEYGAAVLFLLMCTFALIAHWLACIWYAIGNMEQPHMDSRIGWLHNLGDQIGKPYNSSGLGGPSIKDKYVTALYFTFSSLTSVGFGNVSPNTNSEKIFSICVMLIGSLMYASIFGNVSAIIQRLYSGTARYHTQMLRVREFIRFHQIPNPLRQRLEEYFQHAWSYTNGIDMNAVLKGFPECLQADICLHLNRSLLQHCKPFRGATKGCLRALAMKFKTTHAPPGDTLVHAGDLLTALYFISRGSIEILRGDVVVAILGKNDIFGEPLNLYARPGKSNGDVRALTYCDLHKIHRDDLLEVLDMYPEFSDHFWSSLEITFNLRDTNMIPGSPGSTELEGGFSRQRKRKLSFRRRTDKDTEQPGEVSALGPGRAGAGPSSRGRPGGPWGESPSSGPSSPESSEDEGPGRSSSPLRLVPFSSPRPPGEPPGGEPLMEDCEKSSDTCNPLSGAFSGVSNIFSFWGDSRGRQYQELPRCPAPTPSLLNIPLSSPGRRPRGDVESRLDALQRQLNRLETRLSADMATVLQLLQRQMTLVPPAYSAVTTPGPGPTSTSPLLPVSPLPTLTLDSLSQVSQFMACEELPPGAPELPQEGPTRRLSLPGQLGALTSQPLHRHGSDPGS
T23 sequence (P32238 whole entry): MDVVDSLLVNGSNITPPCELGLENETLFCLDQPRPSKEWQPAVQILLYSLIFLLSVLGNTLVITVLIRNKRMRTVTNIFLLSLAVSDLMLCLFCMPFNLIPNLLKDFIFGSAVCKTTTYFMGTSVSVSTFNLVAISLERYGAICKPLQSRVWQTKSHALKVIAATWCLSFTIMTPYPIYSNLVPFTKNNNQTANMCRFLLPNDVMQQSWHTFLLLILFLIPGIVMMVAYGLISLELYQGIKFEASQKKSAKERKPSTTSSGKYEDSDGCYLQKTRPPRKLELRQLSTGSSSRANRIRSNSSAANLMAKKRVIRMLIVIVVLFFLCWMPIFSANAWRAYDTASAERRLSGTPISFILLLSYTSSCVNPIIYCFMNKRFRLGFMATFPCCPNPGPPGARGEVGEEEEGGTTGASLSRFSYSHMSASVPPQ
T8 sequence (P21728 whole entry): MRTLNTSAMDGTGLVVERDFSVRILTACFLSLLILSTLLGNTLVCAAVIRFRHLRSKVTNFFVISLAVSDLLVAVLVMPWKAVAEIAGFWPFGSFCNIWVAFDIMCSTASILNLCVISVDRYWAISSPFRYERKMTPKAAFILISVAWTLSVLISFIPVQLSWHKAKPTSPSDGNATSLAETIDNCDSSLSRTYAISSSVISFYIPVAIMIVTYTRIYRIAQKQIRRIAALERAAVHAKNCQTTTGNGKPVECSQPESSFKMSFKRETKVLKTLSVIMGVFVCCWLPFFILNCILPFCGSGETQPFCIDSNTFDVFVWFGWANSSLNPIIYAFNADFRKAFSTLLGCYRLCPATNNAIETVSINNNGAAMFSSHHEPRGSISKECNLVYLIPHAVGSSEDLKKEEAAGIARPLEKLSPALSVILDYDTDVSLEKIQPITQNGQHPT
T3 sequence (P36544 whole entry): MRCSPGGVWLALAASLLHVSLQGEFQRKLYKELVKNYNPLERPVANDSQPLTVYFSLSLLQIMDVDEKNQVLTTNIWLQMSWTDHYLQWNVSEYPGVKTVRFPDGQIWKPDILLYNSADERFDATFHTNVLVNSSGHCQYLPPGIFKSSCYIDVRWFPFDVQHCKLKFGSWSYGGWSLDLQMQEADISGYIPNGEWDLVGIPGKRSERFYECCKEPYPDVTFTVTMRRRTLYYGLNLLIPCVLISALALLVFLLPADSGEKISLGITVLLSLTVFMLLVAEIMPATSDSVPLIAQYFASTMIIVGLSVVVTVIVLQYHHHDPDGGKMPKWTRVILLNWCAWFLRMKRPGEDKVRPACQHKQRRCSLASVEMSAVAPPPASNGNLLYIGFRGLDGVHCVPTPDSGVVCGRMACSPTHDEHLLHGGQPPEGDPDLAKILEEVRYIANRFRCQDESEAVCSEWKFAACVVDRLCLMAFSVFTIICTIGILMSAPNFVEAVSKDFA
T24 sequence (P20309 whole entry): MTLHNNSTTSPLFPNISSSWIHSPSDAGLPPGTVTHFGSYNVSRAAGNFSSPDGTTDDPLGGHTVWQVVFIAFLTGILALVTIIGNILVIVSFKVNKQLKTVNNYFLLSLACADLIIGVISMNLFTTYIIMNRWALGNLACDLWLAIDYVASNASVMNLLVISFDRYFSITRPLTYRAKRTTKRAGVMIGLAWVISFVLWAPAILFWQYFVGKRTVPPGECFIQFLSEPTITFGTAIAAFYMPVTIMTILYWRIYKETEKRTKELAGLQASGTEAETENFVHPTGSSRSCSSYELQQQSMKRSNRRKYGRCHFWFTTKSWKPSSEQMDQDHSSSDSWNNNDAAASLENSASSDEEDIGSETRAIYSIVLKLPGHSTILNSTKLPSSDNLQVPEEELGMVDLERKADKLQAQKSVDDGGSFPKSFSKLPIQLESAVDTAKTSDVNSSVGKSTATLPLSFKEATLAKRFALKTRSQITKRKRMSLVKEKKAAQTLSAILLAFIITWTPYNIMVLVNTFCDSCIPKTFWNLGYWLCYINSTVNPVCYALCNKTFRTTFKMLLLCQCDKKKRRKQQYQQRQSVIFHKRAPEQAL
T18 sequence (P28222 whole entry): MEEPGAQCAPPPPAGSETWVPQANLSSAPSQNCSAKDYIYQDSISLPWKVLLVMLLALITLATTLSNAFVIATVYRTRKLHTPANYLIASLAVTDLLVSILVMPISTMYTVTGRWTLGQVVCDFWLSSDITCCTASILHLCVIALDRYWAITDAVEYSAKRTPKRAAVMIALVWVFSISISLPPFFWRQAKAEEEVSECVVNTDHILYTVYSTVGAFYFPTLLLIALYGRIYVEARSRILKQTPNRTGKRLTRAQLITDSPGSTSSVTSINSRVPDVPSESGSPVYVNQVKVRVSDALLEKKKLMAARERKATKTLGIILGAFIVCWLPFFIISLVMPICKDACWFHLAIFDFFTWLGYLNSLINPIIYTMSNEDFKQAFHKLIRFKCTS
T12 sequence (P34972 whole entry): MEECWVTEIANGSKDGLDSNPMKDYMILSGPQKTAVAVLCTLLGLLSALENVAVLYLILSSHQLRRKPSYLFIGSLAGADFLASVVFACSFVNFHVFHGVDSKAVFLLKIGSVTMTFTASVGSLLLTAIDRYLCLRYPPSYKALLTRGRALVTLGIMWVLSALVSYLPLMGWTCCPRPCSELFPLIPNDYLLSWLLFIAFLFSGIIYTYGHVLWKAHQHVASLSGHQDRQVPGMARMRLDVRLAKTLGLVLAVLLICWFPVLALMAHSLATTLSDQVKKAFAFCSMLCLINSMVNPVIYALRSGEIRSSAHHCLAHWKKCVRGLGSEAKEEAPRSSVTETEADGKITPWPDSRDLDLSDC

## COCCN(CC1CCCN(Cc2ccccc2)C1)S(=O)(=O)c1ccc2ccccc2c1 (racemic) [compound 4, (±)N-((1-benzylpiperidin-3-yl)methyl)-N-(2-methoxyethyl)naphthalene-2-sulfonamide]
[1]
  inhibition at 10 µM: 34.1%
V1a(h)
  inhibition at 10 µM: 33.8%
N neuronal α7 (h)
  inhibition at 10 µM: 18.2%
D3(h)
  inhibition at 10 µM: 38.4%
5-HT transporter (h)
  inhibition at 10 µM: 12.7%
H1(h)
  inhibition at 10 µM: 29%
5-HT7 (h)
  inhibition at 10 µM: 84.3%
D1(h)
  inhibition at 10 µM: 32.4%
GR (h)
  inhibition at 10 µM: 4.7%
D2L(h)
  inhibition at 10 µM: 26.6%
Sigma 1 (h)
  inhibition at 10 µM: 99.9%
CB2(h)
  inhibition at 10 µM: 17.6%
[2]
  inhibition at 10 µM: 84.8%
N neuronal α4β2 (h)
  inhibition at 10 µM: -17.7%
Acetylcholinesterase (h)
  inhibition at 10 µM: 12.3%
N muscle-type (h)
  inhibition at 10 µM: 23%
μ (MOP) (h)
  inhibition at 10 µM: 82.7%
5-HT1B (h)
  inhibition at 10 µM: 45%
5-HT6 (h)
  inhibition at 10 µM: 87.1%
M4(h)
  inhibition at 10 µM: 63.2%
COX1(h)
  inhibition at 10 µM: 0.4%
D2S(h)
  inhibition at 10 µM: 55.6%
CCK1 (CCKA) (h)
  inhibition at 10 µM: 21.9%
M3(h)
  inhibition at 10 µM: 35.2%
M1(h)
  inhibition at 10 µM: 53.1%
5-HT2A(h)
  inhibition at 10 µM: 93%

— paper PMC8120209, “Longitudinal evaluation of a novel BChE PET tracer as an early in vivo biomarker in the brain of a mouse model for Alzheimer disease” (Theranostics, 2021)
